Where two headings read alike, the source gives them in different places.
Experiments:
HOP-62 = assay: NCI-60 SRB screen: non-small cell lung cancer HOP-62; type: cell-based, human
SK-MEL-5 = assay: NCI-60 SRB screen: melanoma SK-MEL-5; type: cell-based, human
U251 = assay: NCI-60 SRB screen: CNS cancer U251; type: cell-based; conditions: Homo sapiens, U-251, 48 h
SK-MEL-2 = assay: NCI-60 SRB screen: melanoma SK-MEL-2; type: cell-based, human
OVCAR-3 = assay: NCI-60 SRB screen: ovarian cancer OVCAR-3; type: cell-based, human
NCI/ADR-RES = assay: NCI-60 SRB screen: ovarian cancer NCI/ADR-RES; type: cell-based, human
T-47D = assay: NCI-60 SRB screen: breast cancer T-47D; type: cell-based, human
SW-620 = assay: NCI-60 SRB screen: colon cancer SW-620; type: cell-based; conditions: Homo sapiens, SW-620, 48 h
CAKI-1 = assay: NCI-60 SRB screen: renal cancer CAKI-1; type: cell-based, human
Prostate cancer subpanel = assay: NCI-60 screen, subpanel Prostate cancer
786-0 = assay: NCI-60 SRB screen: renal cancer 786-0; type: cell-based, human
COLO 205 = assay: NCI-60 SRB screen: colon cancer COLO 205; type: cell-based, human
CNS cancer subpanel = assay: NCI-60 screen, subpanel CNS cancer
MCF7 = assay: NCI-60 SRB screen: breast cancer MCF7; type: cell-based; conditions: Homo sapiens, MCF7, 48 h
SF-268 = assay: NCI-60 SRB screen: CNS cancer SF-268; type: cell-based, human
SK-MEL-28 = assay: NCI-60 SRB screen: melanoma SK-MEL-28; type: cell-based, human
TK-10 = assay: NCI-60 SRB screen: renal cancer TK-10; type: cell-based, human
NCI-H226 = assay: NCI-60 SRB screen: non-small cell lung cancer NCI-H226; type: cell-based, human
HCT-116 = assay: NCI-60 SRB screen: colon cancer HCT-116; type: cell-based; conditions: Homo sapiens, HCT-116, 48 h
HS 578T = assay: NCI-60 SRB screen: breast cancer HS 578T; type: cell-based, human
MALME-3M = assay: NCI-60 SRB screen: melanoma MALME-3M; type: cell-based, human
Ovarian Cancer subpanel = assay: NCI-60 screen, subpanel Ovarian Cancer
UACC-62 = assay: NCI-60 SRB screen: melanoma UACC-62; type: cell-based, human
SNB-75 = assay: NCI-60 SRB screen: CNS cancer SNB-75; type: cell-based, human
SK-OV-3 = assay: NCI-60 SRB screen: ovarian cancer SK-OV-3; type: cell-based, human
BT-549 = assay: NCI-60 SRB screen: breast cancer BT-549; type: cell-based, human
Breast cancer subpanel = assay: NCI-60 screen, subpanel Breast cancer
SR = assay: NCI-60 SRB screen: leukemia SR; type: cell-based; conditions: Homo sapiens, 48 h
HCT-15 = assay: NCI-60 SRB screen: colon cancer HCT-15; type: cell-based, human
OVCAR-8 = assay: NCI-60 SRB screen: ovarian cancer OVCAR-8; type: cell-based, human
[1] = test system: 60 human tumor cell lines; assay: cells
LOX IMVI = assay: NCI-60 SRB screen: melanoma LOX IMVI; type: cell-based, human
MDA-MB-231/ATCC = assay: NCI-60 SRB screen: breast cancer MDA-MB-231/ATCC; type: cell-based; conditions: Homo sapiens, MDA-MB-231, 48 h
Colon Cancer subpanel = assay: NCI-60 screen, subpanel Colon Cancer
[2] = read-out: Percentage Cell Growth

## C=C(C)[C@@H]1CC[C@]2(C(N)=O)CC[C@]3(C)[C@H](CC[C@@H]4[C@@]5(C)CC[C@H](O)C(C)(C)[C@@H]5CC[C@]43C)[C@@H]12 [Compound 5]
HOP-62; HOP-62, single dose 10 µM
  Percentage Cell Growth: −72.18%
HOP-62; Homo sapiens, HOP-62, 48 h
  GI50: 3.21 µM
SK-MEL-5; Homo sapiens, SK-MEL-5, 48 h
  GI50: 5.22 µM
SK-MEL-5; SK-MEL-5, single dose 10 µM
  Percentage Cell Growth: −39.59%
U251
  GI50: 2.54 µM
U251; [2]
  activity at 10 µM: -69.3%
SK-MEL-2; Homo sapiens, SK-MEL-2, 48 h
  GI50: 7.63 µM
SK-MEL-2; SK-MEL-2, single dose 10 µM
  Percentage Cell Growth: −31.18%
OVCAR-3; Homo sapiens, OVCAR-3, 48 h
  GI50: 2.07 µM
OVCAR-3; OVCAR-3, single dose 10 µM
  Percentage Cell Growth: −46.59%
NCI/ADR-RES; Homo sapiens, 48 h
  GI50: 3.17 µM
NCI/ADR-RES; single dose 10 µM
  Percentage Cell Growth: −8.91%
T-47D; Homo sapiens, T47D, 48 h
  GI50: 4.55 µM
T-47D; T-47D, single dose 10 µM
  Percentage Cell Growth: −24.75%
SW-620
  GI50: 3.88 µM
SW-620; [2]
  activity at 10 µM: -4.49%
CAKI-1; CAKI-1, single dose 10 µM
  Percentage Cell Growth: −64.30%
CAKI-1; Homo sapiens, CAKI-1, 48 h
  GI50: 1.98 µM
Prostate cancer subpanel
  MID b, average sensitivity of all cell line of particular subpanel: 3.02 µM
  Selectivity, ratio MID a: MID b: 1.22
786-0; 786-0, single dose 10 µM
  Percentage Cell Growth: −72.16%
786-0; Homo sapiens, 786-0, 48 h
  GI50: 2.03 µM
COLO 205; COLO 205, single dose 10 µM
  Percentage Cell Growth: −66.21%
COLO 205; Homo sapiens, COLO 205, 48 h
  GI50: 3.63 µM
CNS cancer subpanel
  MID b, average sensitivity of all cell line of particular subpanel: 3.23 µM
  Selectivity, ratio MID a: MID b: 1.14
MCF7
  GI50: 2.91 µM
MCF7; [2]
  activity at 10 µM: -12.5%
SF-268; Homo sapiens, SF-268, 48 h
  GI50: 4.34 µM
SF-268; SF-268, single dose 10 µM
  Percentage Cell Growth: 4.41%
SK-MEL-28; Homo sapiens, SK-MEL-28, 48 h
  GI50: 1.09 µM
SK-MEL-28; SK-MEL-28, single dose 10 µM
  Percentage Cell Growth: 0.38%
TK-10; Homo sapiens, TK-10, 48 h
  GI50: 2.79 µM
TK-10; TK-10, single dose 10 µM
  Percentage Cell Growth: −69.84%
NCI-H226; Homo sapiens, NCI-H226, 48 h
  GI50: 4.11 µM
NCI-H226; NCI-H226, single dose 10 µM
  Percentage Cell Growth: −50.47%
HCT-116
  GI50: 1.97 µM
HCT-116; [2]
  activity at 10 µM: -24.8%
HS 578T; HS 578T, single dose 10 µM
  Percentage Cell Growth: −1.70%
HS 578T; Homo sapiens, Hs-578T, 48 h
  GI50: 5.74 µM
MALME-3M; Homo sapiens, Malme-3M, 48 h
  GI50: 2.39 µM
MALME-3M; MALME-3M, single dose 10 µM
  Percentage Cell Growth: −57.05%
Ovarian Cancer subpanel
  MID b, average sensitivity of all cell line of particular subpanel: 3.88 µM
  Selectivity, ratio MID a: MID b: 0.95
UACC-62; Homo sapiens, UACC-62, 48 h
  GI50: 4.2 µM
UACC-62; UACC-62, single dose 10 µM
  Percentage Cell Growth: −23.23%
SNB-75; Homo sapiens, SNB-75, 48 h
  GI50: 2.74 µM
SNB-75; SNB-75, single dose 10 µM
  Percentage Cell Growth: −39.09%
SK-OV-3; Homo sapiens, SK-OV-3, 48 h
  GI50: 8.18 µM
SK-OV-3; SK-OV-3, single dose 10 µM
  Percentage Cell Growth: −45.72%
BT-549; BT-549, single dose 10 µM
  Percentage Cell Growth: −21.60%
BT-549; Homo sapiens, BT-549, 48 h
  GI50: 3.99 µM
Breast cancer subpanel
  MID b, average sensitivity of all cell line of particular subpanel: 3.73 µM
  Selectivity, ratio MID a: MID b: 0.98
SR
  GI50: 4.14 µM
SR; [2]
  activity at 10 µM: 15.5%
HCT-15; HCT-15, single dose 10 µM
  Percentage Cell Growth: 6.36%
HCT-15; Homo sapiens, HCT-15, 48 h
  GI50: 3.28 µM
OVCAR-8; Homo sapiens, OVCAR-8, 48 h
  GI50: 3.12 µM
OVCAR-8; OVCAR-8, single dose 10 µM
  Percentage Cell Growth: −64.82%
[1]; read-out: GI50 ranges against all panels of NCI60
  GI50: 1.09 to 13.2 µM
[1]; read-out: MID a, average sensitivity of all cell line (GI50-MID)
  GI50: 3.67 µM
LOX IMVI; Homo sapiens, 48 h
  GI50: 1.77 µM
LOX IMVI; single dose 10 µM
  Percentage Cell Growth: −72.80%
MDA-MB-231/ATCC
  GI50: 1.97 µM
MDA-MB-231/ATCC; [2]
  activity at 10 µM: -28.4%
Colon Cancer subpanel
  MID b, average sensitivity of all cell line of particular subpanel: 3.21 µM
  Selectivity, ratio MID a: MID b: 1.14

Source: PMC7587962, “Evaluation of Cytotoxicity and α-Glucosidase Inhibitory Activity of Amide and Polyamino-Derivatives of Lupane Triterpenoids” (Molecules, 2020)
